{"source": "patent US8680059B2", "about": "“Oligopeptide acetate and formulations thereof” (Biotempt B.V., priority 1998, dated 2014)", "key": {"[1]": {"test_system": "RAW 264.7 murine macrophage cell line", "assay": "Nitrite (NO) production in LPS-stimulated RAW 264.7 macrophages", "format": "cell-based", "details": "co-stimulated with LPS 10 microg/ml, peptide even at 1 pg/ml, 24 hours", "protocol": "Cell culture. The RAW 264.7 murine macrophage cell line, obtained from American Type Culture Collection (Manassas, Va., USA), were cultured at 37° C. in 5% CO2 using DMEM containing 10% fetal calf serum (FCS), 50 U/ml penicillin, 50 μg/ml streptomycin, […] Na-pyruvate, 2 mM glutamine and 50 μM 2-mercaptoethanol (Bio Whittaker, Europe). The medium was changed every 2 days.\nNitrite measurements. Nitrite production was measured in the RAW 264.7 macrophage supernatants. The cells (7.5×10^5/ml) were cultured in 48-well plates in […] of culture medium. The cells were stimulated with LPS (10 microg/ml) and/or peptide (1 pg/ml, 1 ng/ml, 1 μg/ml) for 24 hours, then the culture media were collected. Nitrite was measured by adding 100 microl of Griess reagent (Sigma) to 100 microl samples of culture medium. The OD540 was measured using a microplate reader, and the nitrite concentration was calculated by comparison with the OD540 produced using standard solutions of sodium nitrite in the culture medium."}, "[2]": {"test_system": "mice, 25 minutes renal ischemia/reperfusion", "assay": "Mouse renal ischemia reperfusion test (mortality, BUN/serum urea)", "format": "in vivo", "design": "BUN, mean / Urea level: unit not given here", "details": "5 mg/kg i.v.", "protocol": "SEQ ID NO:2 was tested and compared with PBS (control) in a double blind animal study for the peptide's relative ability to aid recovery in a mouse renal ischemia reperfusion test. In this test, the mice were anesthetized, and one kidney from each mouse was removed. The other kidney was tied off for 25 minutes, and the serum urea levels were allowed to increase. Both before and after tying off, the peptide was administered to thirty (30) different mice (5 mg oligopeptide/kg body mass intravenously), after which, the mortality of the mice was determined for each oligopeptide as well as was the BUN concentration at two hours, 24 hours and 72 hours.\nUnder inhalation anesthesia, the left kidney with its artery and vein was isolated and occluded for 25 minutes using a microvascular clamp. During surgery animals were placed on a heating path to maintain body temperature at 37° C. Five minutes before placing the clamp, and 5 minutes before releasing the clamp, 5 mg/kg of peptide, dissolved in 0.1 mL of sterile saline, was administered intravenously. After reperfusion of the left kidney the right kidney was removed. Kidney function was assessed by measuring blood urea nitrogen before clamping, and at 2, 24, and 72 hours after reperfusion.\nTo determine dose-response relationships SEQ ID NO:2, was tested in a dose-response manner in the mice test as described above. Peptides were tested at 0.3, 1, 3, 10 and 30 mg/kg dosages given as described in Example I. Serum urea levels are presented in Table 3."}, "[3]": {"test_system": "BALB/c mice injected i.p. with LPS (E. coli 026:B6)", "assay": "LPS-induced septic shock (endotoxin model) in BALB/c mice", "format": "in vivo, mouse", "protocol": "Mice used in sepsis or septic shock experiments: Female BALB/c mice of 8-12 weeks of age were used for all experiments. The animals were bred in our facility under specific pathogen-free conditions according to the protocols described in the Report of European Laboratory Animal Science Associations (FELASA) Working group on Animal Health (Laboratory Animals 28: 1-24, 1994).\nInjection protocols: For the endotoxin model, BALB/c mice were injected i.p. with 150-300 μg LPS (E. coli 026:B6; Difco Lab., Detroit, Mich., USA). Control groups were treated with PBS i.p. only. To test the effect of peptides, they were dissolved in PBS and injected i.p. at predetermined points in time after LPS treatment.\nMice were scored for sickness severity using the following measurement scheme: • 0 No abnormalities. • 1 Percolated fur, but no detectable behavior differences compared to normal mice. • 2 Percolated fur, huddle reflex, responds to stimuli (such as tap on cage), just as active during handling as healthy mouse. • 3 Slower response to tap on cage, passive or docile when handled, but still curious when alone in a new setting. • 4 Lack of curiosity, little or no response to stimuli, quite immobile. • 5 Labored breathing, inability or slow to self-right after being rolled onto back (moribund, sacrificed). • D Dead […]\nA comparative trial was set up to compare peptide MTR and SEQ ID NO:2. The comparative trial comprised 6 groups of 6 animals; two groups (1A and 1B) receiving placebo (PBS), one group (2) peptide MTR (source Pepscan, Lelystad, NL), one group (3) receiving peptide MTR (source Ansynth), one group (4) receiving peptide SEQ ID NO:2 (source Pepscan) and one group peptide SEQ ID NO:2 (source Ansynth). Peptide/placebo in these groups was administered 2 hours after LPS. LPS (source) was used at 10-11 mg/kg. Sickness scores were done at 0, 2, 22 26 42 and 48 hours after LPS injection."}, "[4]": {"test_system": "mice, high dose LPS septic shock", "details": "single treatment after high dose LPS injection; cited from earlier work"}, "[5]": {"details": "peptide twice (t = 2 hr and 24 hr) 5 mg/kg, LPS dose 11, t = 24 hr"}, "[6]": {"details": "peptide twice (t = 2 hr and 24 hr) 5 mg/kg, LPS dose 11, t = 48 hr"}, "[7]": {"details": "single dose 5 mg/kg, LPS dose 7*, t = 24 hr"}, "[8]": {"details": "single dose 5 mg/kg, LPS dose 8, t = 24 hr"}, "[9]": {"details": "single dose 5 mg/kg, LPS dose 8, t = 48 hr"}, "[10]": {"details": "single dose 5 mg/kg, LPS dose 10, t = 24 hr"}, "[11]": {"details": "single dose 5 mg/kg, LPS dose 10, t = 48 hr"}}, "note": "Where “and” joins values, the source holds several entries; their conditions need not be identical. Equal values may be shown once.", "data": [{"substance": "LQGV [tetrapeptide from loop 2 of the beta-subunit of hCG]", "values": [{"measurement": "NO production", "setting": "[1]", "result": "inhibited the production of NO"}, {"measurement": "BUN, mean", "setting": "[2]; 2 hr after reperfusion", "result": 17.53}, {"measurement": "BUN, mean", "setting": "[2]; 24 hr after reperfusion", "result": 56.08}, {"measurement": "BUN, mean", "setting": "[2]; 72 hr after reperfusion", "result": 73.18}, {"measurement": "BUN, mean", "setting": "[2]; t = 0 hr (before clamping)", "result": 7.518}, {"measurement": "effect against LPS-induced sepsis", "setting": "[3]; 5 mg/kg i.p. after varying doses of LPS (Table 6)", "result": "marked protective effect"}, {"measurement": "number of mice with sickness score 5", "setting": "[3]; peptide twice (t = 2 hr and 24 hr) 5 mg/kg, LPS dose 10.5, t = 24 hr", "result": 5}, {"measurement": "number of mice with score D (dead)", "setting": "[3]; peptide twice (t = 2 hr and 24 hr) 5 mg/kg, LPS dose 10.5, t = 48 hr", "result": 5}, {"measurement": "number of mice with sickness score 4", "setting": "[3]; [5]", "result": 2}, {"measurement": "number of mice with sickness score 5", "setting": "[3]; [5]", "result": 4}, {"measurement": "number of mice with score D (dead)", "setting": "[3]; [6]", "result": 4}, {"measurement": "number of mice with sickness score 4", "setting": "[3]; [6]", "result": 2}, {"measurement": "number of mice with sickness score 1", "setting": "[3]; single dose 5 mg/kg, LPS dose 7**, t = 24 hr", "result": 6}, {"measurement": "number of mice with sickness score 1", "setting": "[3]; single dose 5 mg/kg, LPS dose 7**, t = 48 hr", "result": 6}, {"measurement": "number of mice with sickness score 1", "setting": "[3]; [7]", "result": 2}, {"measurement": "number of mice with sickness score 2", "setting": "[3]; [7]", "result": 4}, {"measurement": "number of mice with sickness score 1", "setting": "[3]; single dose 5 mg/kg, LPS dose 7*, t = 48 hr", "result": 6}, {"measurement": "number of mice with sickness score 1", "setting": "[3]; [8]", "result": 3}, {"measurement": "number of mice with sickness score 3", "setting": "[3]; [8]", "result": 1}, {"measurement": "number of mice with sickness score 2", "setting": "[3]; single dose 5 mg/kg, LPS dose 8, t = 24 hr, 5 mg/kg", "result": "5 and 3"}, {"measurement": "number of mice with sickness score 0", "setting": "[3]; [9]", "result": 4}, {"measurement": "number of mice with sickness score 2", "setting": "[3]; [9]", "result": 1}, {"measurement": "number of mice with sickness score 1", "setting": "[3]; [10]", "result": 2}, {"measurement": "number of mice with sickness score 3", "setting": "[3]; [10]", "result": 1}, {"measurement": "number of mice with sickness score 4", "setting": "[3]; [10]", "result": 1}, {"measurement": "number of mice with score D (dead)", "setting": "[3]; [11]", "result": 1}, {"measurement": "number of mice with sickness score 2", "setting": "[3]; [11]", "result": 1}, {"measurement": "number of mice with sickness score 1", "setting": "[3]; single dose 5 mg/kg, LPS dose 10, t = 48 hr, 5 mg/kg", "result": "6 and 4"}, {"measurement": "% survival", "setting": "[3]; single injection 5 mg/kg 2 hours after LPS (300 μg), time 0 hours", "result": 100, "unit": "%"}, {"measurement": "% survival", "setting": "[3]; single injection 5 mg/kg 2 hours after LPS, time 14 hours", "result": 100, "unit": "%"}, {"measurement": "% survival", "setting": "[3]; single injection 5 mg/kg 2 hours after LPS, time 24 hours", "result": 100, "unit": "%"}, {"measurement": "% survival", "setting": "[3]; single injection 5 mg/kg 2 hours after LPS, time 48 hours", "result": 100, "unit": "%"}, {"measurement": "% survival", "setting": "[3]; single injection 5 mg/kg 2 hours after LPS, time 84 hours", "result": 100, "unit": "%"}, {"measurement": "% survival", "setting": "[3]; single injection 5 mg/kg 24 hours after LPS (300 μg), time 0 hours", "result": 100, "unit": "%"}, {"measurement": "% survival", "setting": "[3]; single injection 5 mg/kg 24 hours after LPS, time 14 hours", "result": 100, "unit": "%"}, {"measurement": "% survival", "setting": "[3]; single injection 5 mg/kg 24 hours after LPS, time 24 hours", "result": 100, "unit": "%"}, {"measurement": "% survival", "setting": "[3]; single injection 5 mg/kg 24 hours after LPS, time 48 hours", "result": 0, "unit": "%"}, {"measurement": "% survival", "setting": "[3]; single injection 5 mg/kg 24 hours after LPS, time 84 hours", "result": 0, "unit": "%"}]}, {"substance": "VLPALP [6-mer oligopeptide derived from the beta-chain of human chorionic gonadotropin hormone (Khan et al. 2002)]", "values": [{"measurement": "septic shock in mice", "setting": "[4]", "result": "inhibited septic shock in mice"}]}]}
